Literature values, collected in US20250205171A1, “TRANSDERMAL DELIVERY SYSTEMS FOR CERTAIN FACTOR Xa INHIBITORS AND RELATED METHODS FOR THEIR PREPARATION AND USE” (ARx, LLC, priority 2022, published 2025).

| Compound | water solubility |
| --- | --- |
| COc1ccc(-n2nc(C(N)=O)c3c2C(=O)N(c2ccc(N4CCCCC4=O)cc2)CC3)cc1 [apixaban] | about 0.11 mg/mL |
| COc1ccc(NC(=O)c2ccc(C(=N)N(C)C)cc2)c(C(=O)Nc2ccc(Cl)cn2)c1 [betrixaban] | 2500 to 2700 µg/mL |
| COc1ccc(C(=O)Nc2cccc(O)c2NC(=O)c2ccc(N3CCCN(C)CC3)cc2)cc1 [darexaban] | about 0.0048 mg/mL |
| CN1CCc2nc(C(=O)N[C@@H]3C[C@@H](C(=O)N(C)C)CC[C@@H]3NC(=O)C(=O)Nc3ccc(Cl)cn3)sc2C1 [edoxaban] | about 0.093 mg/mL |
| CO[C@@H]1C[C@H](C(=O)Nc2ccc(-n3ccccc3=O)cc2F)N(C(=O)Nc2ccc(Cl)cc2)C1 [eribaxaban] | about 0.00717 mg/mL |
| CO[C@H]1O[C@H](COS(=O)(=O)O)[C@@H](O[C@@H]2O[C@@H](C(=O)O)[C@@H](O[C@H]3O[C@H](COS(=O)(=O)O)[C@@H](O[C@@H]4O[C@H](C(=O)O)[C@@H](O[C@H]5O[C@H](COS(=O)(=O)O)[C@@H](O)[C@H](O)[C@H]5NS(=O)(=O)O)[C@H](O)[C@H]4O)[C@H](OS(=O)(=O)O)[C@H]3NS(=O)(=O)O)[C@H](O)[C@H]2OS(=O)(=O)O)[C@H](O)[C@H]1NS(=O)(=O)O [fondaparinux] | about 7.91 mg/mL |
| O=C([C@H](O)CS(=O)(=O)c1ccc2cc(Cl)ccc2c1)N1CCC(N2CCCNC2=O)CC1 [letaxaban] | about 0.217 mg/mL |
| COC(=O)[C@H](Cc1cccc(C(=N)N)c1)[C@@H](C)NC(=O)c1ccc(-c2cc[n+]([O-])cc2)cc1 [otamixaban] | about 0.0088 mg/mL |
| O=C(NC[C@H]1CN(c2ccc(N3CCOCC3=O)cc2)C(=O)O1)c1ccc(Cl)s1 [rivaroxaban] | about 0.01 mg/mL |
